Values after ≈ are worked out from the molar mass of the structure shown. “Also recorded” adds a separate entry of the source. Structures can show the parent of a compound that is named as a salt.
Tests used:
[1] = Slurry in water for 48 hours, re-examined by XRPD (disproportionation); type: physicochemical; conditions: slurry in water 20 mg / 400 uL, ambient temperature
Experimental: When a sample of Example compound 1 was stored in a slurry in water at 20 mg / 400uL for 48 hours at ambient temperature, recovered, dried by evaporation and re-examined by XRPD, there was no change in the X-ray diffractogram.

[2] = Hygroscopicity by Dynamic Vapour Sorption (DVS); type: physicochemical; conditions: 25° C.; for Hygroscopicity: DVS, 0 to 90% RH; for Reversible weight gain (DVS): analysed to 80% RH
Experimental: Dynamic Vapour Sorption (DVS) analysis was carried out on a sample of Example compound 1.
Approximately 20 mg of sample was placed into a wire-mesh vapour sorption balance pan and loaded into an ‘IgaSorp’ vapour sorption balance (Hiden Analytical Instruments). The sample was then dried by maintaining a 0% humidity environment until no further weight change was recorded.
The sample was then subjected to a step profile from 0 to 90% RH at 10% RH increments. The desorption isotherm was from 90% RH o 0% RH in 10% RH steps. The weight change during the sorption/desorption cycles were then monitored, allowing for the hygroscopic nature of the sample to be determined. Analysis was performed using the following parameters: • Analysis Mode F1 • Wait Time 99% • Sample Temperature 25° C. • Min Time Out 30 Mins • MaxTime Out 180 Mins • Gas Flow Rate 250 ml/min

[3] = Thermogravimetric analysis (TGA) and differential scanning calorimetry (DSC); type: physicochemical; conditions: heating 20° C./min, nitrogen
Experimental: For the TGA analysis, approximately 5-10 mg of sample of Example Compound 1 was accurately weighed into a pierced Tzero aluminium pan and sealed with a pinhole lid using a crimper. The sample was then loaded into the chamber of a TGA thermal analyser at ambient temperature. A TA Instruments TGA5500 device was used. The sample was then heated at a rate of 20° C./min from 20° C. to 400° C. The purge gas used was nitrogen at a flow rate of 50 cm^3/min.
For the DSC analysis, approximately 2 mg of sample was accurately weighed into a pierced Tzero aluminium pan and sealed using a universal crimper. The sample was then loaded into the chamber of a DSC analyser at ambient temperature. A TA Instruments DSC2500 device was used. The sample was then heated at a rate of 20° C./min from 30° C. to 400° C. The purge gas used was nitrogen at a flow rate of 50 cm^3/min

[4] = test system: Ulcerative Colitis modelled by Dextran Sulphate Sodium (DSS); experiment: DSS mouse model of Ulcerative Colitis; type: in vivo, C57B1/6 mice; conditions: 1 mg/kg daily oral; for Colitis clinical score: Day 9, vs vehicle-treated controls, FIG. 8; for Colon length: Day 10 termination, FIG. 10
Experimental: Ulcerative Colitis was modelled in C57B1/6 mice by administering Dextran Sulphate Sodium (DSS) in drinking water (1.5% w/v) for 5 days. Mice were monitored daily for weight loss and clinical symptoms of disease for 10 days starting at the beginning of DSS administration.
Anti-TNFα antibody was administered at 500 µg/treatment on Days 0, 2, 4, and 6. Following termination on Day 10, colons were removed and measured. The length and weight of the colon were also assessed.
Compared to naive animals, animals given DSS water developed clinical signs of disease including weight loss and diarrhoea as well as gross pathological signs of disease on experiment termination. […] Shortened length and increased weight:length ratio indicates edema associated with ulcerative colitis.

[5] = Solubility in PBS (pH 7.4) and simulated colonic fluid, saturated solutions by HPLC-UV; type: physicochemical; conditions: saturated solution, ambient temperature
Experimental: The solubility and stability at room temperature of Example compound 1 and the free acid compound 5-chloro-4-hydroxy-1-methyl-2-oxo-N-phenyl-quinoline-3-carboxamide (described in Example 1a) above) was determined in PBS (pH 7.4) and in simulated colonic fluid (SCF) at ambient temperature. The SCF was the product FaSSCof obtained from Biorelevant.com prepared according to the manufacturer’s instructions. FaSSCof contains 0.15 mM sodium cholate, 0.3 mM Phospholipids, 0.1 mM Oleate, 120 mM sodium hydroxide, 45 mM TRIS and 76 mM maleate.
Saturated solutions were prepared in these solvents and the concentrations/impurity profile was determined by HPLC-UV using a calibration curve in the range of 1 to 150 µg/ml at 300 nm or 320 nm. Visual evaluation was also performed after every step over the testing period.

[6] = listed as 5-chloro-4-hydroxy-1-methyl-2-oxo-N-phenyl-quinoline-3-carboxamide free acid

In the case of Cn1c(=O)c(C(=O)Nc2ccccc2)c(O)c2c(Cl)cccc21 [Example compound 2, 5-chloro-4-hydroxy-1-methyl-2-oxo-N-phenyl-quinoline-3-carboxamide sodium salt], the “Stability in water slurry: change in X-ray diffractogram” value [1] is reported as “slight changes”, the Hygroscopicity [2] is reported as “slightly hygroscopic” and the “Reversible weight gain (DVS)” value [2] is reported as 1%. The Degradation temperature ([3]; listed as 5-chloro-4-hydroxy-1-methyl-2-oxo-N-phenyl-quinoline-3-carboxamide sodium salt, sodium salt) was “around 350 °C” and the Degradation temperature ([3]; listed as Example Compound 2, sodium salt) was 350 °C ±2 °C.

For Cn1c(=O)c(C(=O)Nc2ccccc2)c([O-])c2c(Cl)cccc21.[Li+] [Example compound 3, 5-chloro-4-hydroxy-1-methyl-2-oxo-N-phenyl-quinoline-3-carboxamide lithium salt], the “Stability in water slurry: change in X-ray diffractogram” value [1] was “slight changes”, the Hygroscopicity [2] was “slightly hygroscopic” and the “Reversible weight gain (DVS)” value [2] was “less than 0.25%”. The Degradation temperature ([3]; listed as 5-chloro-4-hydroxy-1-methyl-2-oxo-N-phenyl-quinoline-3-carboxamide lithium salt, lithium salt) was “around 360 °C” and the Degradation temperature ([3]; listed as Example Compound 3, lithium salt) was 360 °C ±2 °C.

In the case of Cn1c(=O)c(C(=O)Nc2ccccc2)c(O)c2c(Cl)cccc21 [Free Acid, 5-chloro-4-hydroxy-1-methyl-2-oxo-N-phenyl-quinoline-3-carboxamide], the Colitis clinical score [4] is reported as “protective effect against the development of the clinical symptoms”, the Colitis clinical score [4, 6] is reported as “significant reduction” and the Colitis clinical score ([4]; listed as 5-chloro-4-hydroxy-1-methyl-2-oxoN-phenyl-quinoline-3-carboxamide free acid) is reported as “lower colitis score”. For the same compound, the Colon length ([4]; vs vehicle-treated controls) was “effective at reducing colon shortening”, the Colon length ([4]; vs vehicle-treated controls, listed as 5-chloro-4-hydroxy-1-methyl-2-oxo-N-phenyl-quinoline-3-carboxamide free acid) was “significant increase; also recorded: greater colon length” and the “Body weight change (% change from day 1 of experiment)” value ([4]; vs vehicle-treated controls, FIG. 9) was “reduced weight loss”. For the same compound, the “Solubility in PBS (pH7.4)” value ([5]; PBS (pH 7.4), listed as 5-chloro-4-hydroxy-1-methyl-2-oxo-N-phenyl-quinoline-3-carboxamide free acid) was “not quantifiable; also recorded: Non quantifiable”, the solubility ([5]; simulated colonic fluid (FaSSCof), fassgf or other biorelevant, thermodynamic from solid, SCF (FaSSCof), read-out: Solubility in simulated colonic fluid (SCF)) was 3.44 µg/mL (≈ 10.5 µM) and the Degradation temperature [3] was 260 °C ±2 °C. The Degradation temperature [3, 6] was 260 °C.

Source: patent US20230202982A1, “5-CHLORO-4-HYDROXY-1-METHYL-2-OXO-N-PHENYL-QUINOLINE-3-CARBOXAMIDE POTASSIUM SALT FOR TREATING INFLAMMATORY BOWEL DISEASES” (Aqilion AB, priority 2020, published 2023)
